Consider 13 compounds from patent US7205403B2, “8-Heteroaryl xanthine adenosine A2B receptor antagonists” (King Pharmaceuticals Research and Development, Inc., priority 2002, dated 2007).

For test [1], the target named is T1, human A3 adenosine receptor (Homo sapiens, UniProt P0DMS8).
T1 construct: expressed in transfected cells; host or cells: CHO cells (membranes)
T1 sequence (P0DMS8 1-318): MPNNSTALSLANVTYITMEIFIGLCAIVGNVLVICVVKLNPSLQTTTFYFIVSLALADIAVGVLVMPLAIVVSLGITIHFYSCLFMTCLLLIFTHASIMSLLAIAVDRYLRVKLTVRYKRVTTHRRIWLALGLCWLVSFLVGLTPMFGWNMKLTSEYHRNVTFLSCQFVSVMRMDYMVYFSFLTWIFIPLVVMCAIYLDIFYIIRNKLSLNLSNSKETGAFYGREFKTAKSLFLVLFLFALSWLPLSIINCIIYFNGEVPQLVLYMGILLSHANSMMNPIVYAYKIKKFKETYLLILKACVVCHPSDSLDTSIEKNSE
Kind of test: [3H]MRE3008F20 binding to human A3 receptors expressed in CHO cells. The essentials:
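CHO cell membranes (50 μg protein) competed against 1 nM [3H]-MRE3008-F20 in 50 mM Tris HCl, MgCl2, pH 7.4, with 6–8 ligand concentrations in duplicate, 120 minutes at 4° C. Filter-bound radioactivity counted by scintillation; inhibitory binding constants derived.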

In test [2] the target is T2, human A2A adenosine receptor (Homo sapiens, UniProt P29274).
T2 construct: expressed in transfected cells; host or cells: CHO cells (membranes)
T2 sequence (P29274 whole entry): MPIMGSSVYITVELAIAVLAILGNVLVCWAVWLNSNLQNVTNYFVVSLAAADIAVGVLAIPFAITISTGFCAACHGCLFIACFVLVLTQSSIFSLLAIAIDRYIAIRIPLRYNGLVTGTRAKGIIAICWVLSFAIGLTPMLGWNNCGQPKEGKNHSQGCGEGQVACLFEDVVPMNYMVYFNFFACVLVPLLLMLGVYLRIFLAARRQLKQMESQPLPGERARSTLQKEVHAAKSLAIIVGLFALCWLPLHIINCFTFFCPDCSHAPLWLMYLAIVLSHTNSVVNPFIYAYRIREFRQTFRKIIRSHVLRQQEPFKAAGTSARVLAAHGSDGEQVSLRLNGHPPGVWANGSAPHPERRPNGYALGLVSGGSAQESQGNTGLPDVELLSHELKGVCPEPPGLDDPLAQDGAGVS
Kind of test: [3H]ZM241385 binding to human A2A receptors expressed in CHO cells. The note with it: for Ki: read-out: Ki, [3H]ZM241385 binding to human A2A receptors expressed in CHO cells. The essentials:
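Membranes from adherent CHO cells, resuspended in 50 mM Tris HCl with 10 mM MgCl2, pH 7.4. The inhibitory binding constant is reported.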

The target in test [3] is T3, human A2B adenosine receptor (Homo sapiens, UniProt P29275).
T3 sequence (P29275 1-332): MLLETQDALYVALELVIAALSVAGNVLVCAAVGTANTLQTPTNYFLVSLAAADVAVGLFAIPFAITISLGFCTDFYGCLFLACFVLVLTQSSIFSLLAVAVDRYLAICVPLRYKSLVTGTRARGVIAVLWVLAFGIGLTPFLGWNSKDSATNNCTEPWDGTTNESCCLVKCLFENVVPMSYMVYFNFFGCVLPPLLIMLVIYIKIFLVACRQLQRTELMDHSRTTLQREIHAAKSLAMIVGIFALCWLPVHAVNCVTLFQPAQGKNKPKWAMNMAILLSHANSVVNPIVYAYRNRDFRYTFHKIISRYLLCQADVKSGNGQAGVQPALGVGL
Kind of test: [3H]DPCPX binding to human A2B receptors expressed in HEK293 cells. On the set-up: host or cells: HEK 293 cells (membranes). The note with it: geometric mean (95% confidence interval); >1000 = no appreciable binding; read-out: Ki, [3H]DPCPX binding to human A2B receptors expressed in HEK293 cells. The essentials: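 Membranes (20 μg protein) from HEK293 cells expressing recombinant human A2B receptor were incubated 60 min at 25° C with 40 nM [3H]-DPCPX and 6–8 compound concentrations. Buffer was Tris-HCl with MgCl2, 1 mM EDTA, 0.1 mM benzamidine and 2 IU/ml adenosine deaminase, pH 7.4. Filter-bound radioactivity gave the inhibitory binding constant.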

Test [4] deals with T4, human A1 adenosine receptor (Homo sapiens, UniProt P30542).
T4 construct: expressed in transfected cells; host or cells: CHO cells (membranes)
T4 sequence (P30542 1-326): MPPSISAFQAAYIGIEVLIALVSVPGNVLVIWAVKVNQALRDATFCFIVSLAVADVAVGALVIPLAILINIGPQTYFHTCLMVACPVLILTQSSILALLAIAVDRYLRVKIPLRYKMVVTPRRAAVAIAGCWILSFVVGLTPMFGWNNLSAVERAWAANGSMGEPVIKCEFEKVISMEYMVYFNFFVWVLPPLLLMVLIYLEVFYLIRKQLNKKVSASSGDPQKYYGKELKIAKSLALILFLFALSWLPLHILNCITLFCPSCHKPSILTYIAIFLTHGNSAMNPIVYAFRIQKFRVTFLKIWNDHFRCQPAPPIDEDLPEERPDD
The test can be described thus: [3H]DPCPX binding to human A1 receptors expressed in CHO cells. As to the method: The cells were grown adherently and maintained in Dulbecco's modified Eagle's medium with nutrient mixture F12 without nucleosides at 37° C. in 5% CO2/95% air. The cells were washed with phosphate-buffered saline and scraped off flasks in ice cold hypotonic buffer ([…] Tris HCl, 2 mM EDTA, pH 7.4). The cell suspension was homogenized with a Polytron and the homogenate was centrifuged for 30 minutes at 48,000 g. The resultant membrane pellet was re-suspended in 50 mM Tris HCl buffer at pH 7.4 for A1 adenosine receptors; in 50 mM Tris HCl 10 mM MgCl, at pH 7.4 for A2A adenosine receptors; in 50 mM Tris HCl, 10 mM MgCl2, 1 mM EDTA, at pH 7.4 for A3 adenosine receptors and were utilized for binding assays.
Displacement experiments were performed for 120 minutes at 25° C. in 200 μl of buffer containing 1 nM ^3H]-DPCPX 20 μl of diluted membranes (50 μg of protein/assay) and at least 6 to 8 different concentrations of examined compounds.
The filter bound radioactivity was counted on Top Count (efficiency 57%) with Micro-Scint 20.
The filter bound radioactivity was counted on a Top Count brand Microplate Scintillation Counter (efficiency 57%) with Micro-Scint 20. […] Inhibitory binding constant. […] Results and Discussion

[5] abbreviates: geometric mean (95% confidence interval), >1000 = no appreciable binding.

Entries after “also recorded” stand apart in the source; their conditions may differ. Read-outs that look alike come from different tables or passages of the source.

In the case of `CCCn1c(=O)c2[nH]c(-c3cc(NC(=O)Cc4ccc(OCc5ccccc5)cc4)nn3C)nc2n(CCC)c1=O` [AS16, 2-[4-benzyloxyphenyl]-N-[5-(2,6-dioxo-1,3-dipropyl-2,3,6,9-tetrahydro-1H-purin-8-yl)-1-methyl-1H-pyrazol-3-yl]acetamide], the Ki in test [1] was over 1000 nM; in test [2], over 1000 nM; in test [3] it was 56 nM. The “Ki, [3H]MRE3008F20 binding to human A3 receptors expressed in CHO cells” value (from here on “Ki, [3H]MRE3008F20 binding”) in test [1] (setting [5]) is “no appreciable affinity; also recorded: without significant binding”. Besides, the “Ki, [3H]ZM241385 binding to human A2A receptors expressed in CHO cells” value (“Ki, [3H]ZM241385 binding” for short) in test [2] (setting [5]) is recorded as “no appreciable affinity; also recorded: without significant binding”. In test [4] (setting [5]), the “Ki, [3H]DPCPX binding to human A1 receptors expressed in CHO cells” value (“Ki, [3H]DPCPX binding” for short) was “no appreciable affinity; also recorded: without significant binding”.
As for `CCCn1c(=O)c2[nH]c(-c3cc(OCC(=O)Nc4ccc(C)cc4)nn3C)nc2n(CCC)c1=O` [AS59, N-(4-methylphenyl)-2-{[5-(1,3-dipropyl-2,6-dioxo-2,3,6,7-tetrahydro-1H-purin-8-yl)-1-methyl-1H-pyrazol-3-yl]oxy}acetamide], the inhibition constant (Ki) in test [1] (setting [5]) is over 1000 nM; in test [2] (setting [5]), over 1000 nM; in test [3], 1010 nM; in test [4] (setting [5]) it was over 1000 nM.
As for `CCCn1c(=O)c2[nH]c(-c3cc([N+](=O)[O-])cn3C)nc2n(CCC)c1=O` [AS7, 8-(1-methyl-4-nitro-1H-pyrrol-2-yl)-1,3-dipropyl-3,7-dihydro-1H-purine-2,6-dione], the Ki was over 1000 nM in test [1], over 1000 nM in test [2], 342 nM in test [3] and 122 nM in test [4].
With `CCCn1c(=O)c2[nH]c(-c3cc(NC(=O)CCCNC(=O)OC(C)(C)C)nn3C)nc2n(CCC)c1=O` [AS9, tert-butyl 4-{[5-(2,6-dioxo-1,3-dipropyl-2,3,6,7-tetrahydro-1H-purin-8-yl)-1-methyl-1H-pyrazol-3-yl]amino}-4-oxobutylcarbamate], the Ki in test [1], in test [2], in test [3] and in test [4] was over 1000 nM each time.
On to `CC(C)Cn1c(=O)c2[nH]c(-c3cc(OCC(=O)Nc4ccc(Br)cc4)n(C)n3)nc2n(CC(C)C)c1=O` [AS63, 2-{[3-(1,3-diisobutyl-2,6-dioxo-2,3,6,9-tetrahydro-1H-purin-8-yl)-1-methyl-1H-pyrazol-5-yl]oxy}-N-(4-bromophenyl)acetamide], for which the Ki was over 1000 nM in test [1], over 1000 nM in test [2], 66 nM in test [3] and 49 nM in test [4] (setting [5]).
On to `CCCn1c(=O)c2[nH]c(-c3cc(NC(=O)Cc4ccc(OCc5cccc(C(F)(F)F)c5)cc4)nn3C)nc2n(CCC)c1=O` [AS30, N-[5-(2,6-dioxo-1,3-dipropyl-2,3,6,9-tetrahydro-1H-purin-8-yl)-1-methyl-1H-pyrazol-3-yl]-2-(4-{[3-(trifluoromethyl)benzyl]oxy}phenyl)acetamide], for which the Ki in test [1] was over 1000 nM; in test [2] it was over 1000 nM; in test [3], 90 nM; in test [4] (setting [5]), 100 nM.
For the compound `CCCn1c(=O)c2[nH]c(-c3cc(OCC(=O)Nc4ccc(Cl)c(Cl)c4)nn3C)nc2n(CCC)c1=O` [AS100, 1,3-di-n-propyl-8-{5-[(3,4-chloro-phenylcarbamoyl)-methoxy]-2-methyl-2H-pyrazole-3-yl}-xanthine], the inhibition constant (Ki) was over 1000 nM in test [1], over 1000 nM in test [2], 16 nM in test [3] and 300 nM in test [4] (setting [5]).
Consider `CCCn1c(=O)c2[nH]c(-c3cc(OCC(=O)N4CCN(c5ccccc5)CC4)nn3C)nc2n(CCC)c1=O` [AS70, 1,3-di-n-propyl-8-{5-[2-oxo-2-(4-phenyl-piperazin-1-yl)-ethoxy]-2-methyl-2H-pyrazole-3-yl}-xanthine], for which the Ki in test [1] was over 1000 nM; in test [2], over 1000 nM; in test [3], 15 nM; in test [4] (setting [5]), 250 nM.
As to `CCCn1c(=O)c2[nH]c(-c3cc(NC(=O)Cc4ccc(F)cc4)nn3C)nc2n(CCC)c1=O` [AS22, N-[5-(2,6-dioxo-1,3-dipropyl-2,3,6,9-tetrahydro-1H-purin-8-yl)-1-methyl-1H-pyrazol-3-yl]-2-(4-fluorophenyl)acetamide], the Ki was over 1000 nM in test [1], over 1000 nM in test [2], 88 nM in test [3] and 200 nM in test [4] (setting [5]).
Take `CCCn1c(=O)c2[nH]c(-c3cc(NC(=O)Cc4ccc(O)cc4)nn3C)nc2n(CCC)c1=O` [AS17, 2-[4-hydroxyphenyl]-N-[5-(2,6-dioxo-1,3-dipropyl-2,3,6,9-tetrahydro-1H-purin-8-yl)-1-methyl-1H-pyrazol-3-yl]acetamide]: the inhibitory constant (Ki) in test [1] was over 1000 nM; in test [2], over 1000 nM; in test [3] it was 103 nM. In test [1] (setting [5]), the “Ki, [3H]MRE3008F20 binding” value was “no appreciable affinity; also recorded: without significant binding”. The “Ki, [3H]ZM241385 binding” value in test [2] (setting [5]) was “no appreciable affinity; also recorded: without significant binding”. Further, in test [4] (setting [5]), the “Ki, [3H]DPCPX binding” value was “no appreciable affinity; also recorded: without significant binding”.
For `CCCn1c(=O)c2[nH]c(-c3cc(OCC(=O)Nc4ccc(C)cc4)nn3C)nc2n(CCC)c1=O` [AS92], the Ki in test [1] is over 1000 nM; in test [2], over 1000 nM; in test [3], 19 nM; in test [4] (setting [5]), 79 nM.
In the case of `CC(C)Cn1c(=O)c2[nH]c(-c3cc(OCC(=O)Nc4ccc(Br)cc4)nn3C)nc2n(CC(C)C)c1=O` [AS67, 2-{[5-(1,3-diisobutyl-2,6-dioxo-2,3,6,9-tetrahydro-1H-purin-8-yl)-1-methyl-1H-pyrazol-3-yl]oxy}-N-(4-bromophenyl)acetamide], the Ki is over 1000 nM in test [1], over 1000 nM in test [2], 132 nM in test [3] and 2430 nM in test [4] (setting [5]).
`CCCn1c(=O)c2[nH]c(-c3cc(NC(=O)Cc4ccc([N+](=O)[O-])cc4)nn3C)nc2n(CCC)c1=O` [AS15, N-[5-(2,6-dioxo-1,3-dipropyl-2,3,6,9-tetrahydro-1H-purin-8-yl)-1-methyl-1H-pyrazol-3-yl]-2-(4-nitrophenyl)acetamide]: the Ki in test [1] was over 1000 nM; in test [2], over 1000 nM; in test [3], 78 nM. Besides, the “Ki, [3H]MRE3008F20 binding” value in test [1] (setting [5]) is recorded as “no appreciable affinity; also recorded: without significant binding”. For the same compound, the “Ki, [3H]ZM241385 binding” value in test [2] (setting [5]) is listed as “no appreciable affinity; also recorded: without significant binding”. The “Ki, [3H]DPCPX binding” value in test [4] (setting [5]) is “no appreciable affinity; also recorded: without significant binding”.

As a reminder, the Ki is the equilibrium dissociation constant of an inhibitor or competing ligand from its target.
